Test results reported in patent US20220056019A1, “FARNESOID X RECEPTOR AGONISTS AND USES THEREOF” (Metacrine, Inc., priority 2018, published 2022).

biological target: T1, hFXR (Homo sapiens, UniProt Q96RI1); test: In Vitro FXR Assay (TK): TK-ECRE-luc reporter in transfected CV-1 cells; type: cell-based; details: 18 hrs incubation, luminescence
T1 construct: expressed in transfected cells; host or cells: CV-1 cells
T1 sequence (Q96RI1 1-486): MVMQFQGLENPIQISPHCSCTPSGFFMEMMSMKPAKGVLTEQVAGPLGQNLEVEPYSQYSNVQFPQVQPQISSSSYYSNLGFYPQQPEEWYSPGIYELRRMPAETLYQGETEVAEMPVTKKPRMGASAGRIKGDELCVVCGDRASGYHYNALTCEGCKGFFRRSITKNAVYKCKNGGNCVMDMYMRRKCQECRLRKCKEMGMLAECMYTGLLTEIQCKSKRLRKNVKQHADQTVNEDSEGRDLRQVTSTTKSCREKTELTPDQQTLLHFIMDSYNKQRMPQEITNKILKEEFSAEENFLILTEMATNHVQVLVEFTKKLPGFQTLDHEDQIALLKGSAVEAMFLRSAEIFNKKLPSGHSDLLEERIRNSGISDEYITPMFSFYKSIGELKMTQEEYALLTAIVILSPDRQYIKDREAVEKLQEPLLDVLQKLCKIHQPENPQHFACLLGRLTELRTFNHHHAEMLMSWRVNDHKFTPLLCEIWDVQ
T1 sequence (P19793 1-462 partner): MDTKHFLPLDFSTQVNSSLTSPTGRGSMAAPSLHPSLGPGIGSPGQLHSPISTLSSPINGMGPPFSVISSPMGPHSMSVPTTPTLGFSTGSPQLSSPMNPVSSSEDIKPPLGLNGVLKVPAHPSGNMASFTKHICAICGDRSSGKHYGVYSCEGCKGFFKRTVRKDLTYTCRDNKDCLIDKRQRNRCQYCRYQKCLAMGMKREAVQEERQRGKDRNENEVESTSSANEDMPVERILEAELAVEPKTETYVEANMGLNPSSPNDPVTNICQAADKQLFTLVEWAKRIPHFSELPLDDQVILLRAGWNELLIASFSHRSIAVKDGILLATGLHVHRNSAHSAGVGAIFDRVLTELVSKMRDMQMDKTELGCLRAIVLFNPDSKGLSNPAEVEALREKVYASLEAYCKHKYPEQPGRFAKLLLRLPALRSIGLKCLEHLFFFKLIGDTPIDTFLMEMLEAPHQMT
Description: Example B-1: In Vitro FXR Assay (TK)
CV-1 cells were seeded at a density of 2,000,000 cells in a T175 flask with DMEM+10% charcoal double-stripped FBS and incubated at 37° C. in 5% CO2 for 18 h (O/N).
After 18 h of incubation, the medium in the T175 flask was changed with fresh DMEM+10% charcoal super-stripped serum. In a polypropylene tube, 2500 μL OptiMEM (Life Technologies, Cat #31985-062) was combined with expression plasmids for hFXR, hRXR, TK-ECRE-luc and pCMX-YFP. The tube was then briefly vortexed and incubated at room temperature for 5 minutes. Transfection reagent (X-tremeGENE HP from Roche, Cat #06 366 236 001) was added to the OptiMEM/plasmid mixture vortexed and incubated at room temperature for 20 minutes. Following incubation, the transfection reagent/DNA mixture complex was added to cells in the T175 flask and the cells were incubated at 37° C. in 5% CO2 for 18 h (O/N).
Compounds were serially diluted in DMSO and added to transfected CV-1 cells. The cells were then incubated for 18 hrs. The next day cells were lysed and examined for luminescence.

Compound	EC50 [nM]
COc1ccc([C@H]2CC[C@H](CN(c3cccc(-c4cnn(C(C)C)c4)c3)C(=O)[C@H]3CC[C@H](NC(=O)OC4CCN(C)CC4)CC3)CC2)cc1C [Compound 6.08, 1-Methylpiperidin-4-yl (trans-4-((3-(1-isopropyl-1H-pyrazol-4-yl)phenyl)((trans-4-(4-methoxy-3-methylphenyl)cyclohexyl)meth-yl)carbamoyl)cyclohexyl)carbamate]	50 to 1000
COc1ncc(C23CCC(CN(c4cc(-c5cnn(C(C)C)c5)ccn4)C(=O)[C@H]4CC[C@H](OC(=O)N5CC(O)C5)CC4)(CC2)CC3)cc1C [Compound 26, 4-((4-(1-Isopropyl-1H-pyrazol-4-yl)pyridin-2-yl)((4-(6-methoxy-5-methylpyridin-3-yl)bicyclo[2.2.2]octan-1-yl)methyl)carbamoyl)cyclohexyl trans-3-hydroxyazetidine-1-carboxylate]	≤ 50
COc1ccc([C@H]2CC[C@H](CN(c3cc(-c4cnn(C(C)C)c4)ccn3)C(=O)[C@H]3CC[C@H](OC(=O)N4CCN(C)CC4)CC3)CC2)cc1C [Compound 2.14, trans-4-((4-(1-Isopropyl-1H-pyrazol-4-yl)pyridin-2-yl)(((trans)-4-(4-methoxy-3-methylphenyl)cyclohexyl)methyl)carbamoyl) cyclohexyl4-methylpiperazine-1-carboxylate]	≤ 50
COc1ccc([C@H]2CC[C@H](CN(c3cc(-c4coc(C(C)C)n4)ccn3)C(=O)[C@H]3CC[C@H](OC(=O)NCC(C)(C)O)CC3)CC2)cc1C [Compound 2.26, trans-4-((4-(2-Isopropyloxazol-4-yl)pyridin-2-yl)(((trans)-4-(4-methoxy-3-methylphenyl)cyclohexyl)methyl)carbamoyl)cyclohexyl (2-hydroxy-2-methylpropyl)carbamate]	≤ 50
CCc1ncc(-c2ccnc(N(CC34CCC(c5ccc(OC)c(C)c5)(CC3)CC4)C(=O)[C@H]3CC[C@H](OC(=O)N4CC(CO)C4)CC3)c2)s1 [Compound 4.37, 4-((4-(2-Ethylthiazol-5-yl)pyridin-2-yl)((4-(4-methoxy-3-methylphenyl)bicyclo[2.2.2]octan-1-yl)methyl)carbamoyl) cyclohexyl3-(hydroxymethyl)azetidine- trans-1-carboxylate]	50 to 1000
COc1ccc([C@H]2CC[C@H](CN(c3cc(-c4coc(C5CC5)n4)ccn3)C(=O)[C@H]3CC[C@H](OC(=O)NC(C)C)CC3)CC2)cc1C [Compound 2.46, trans-4-((4-(2-Cyclopropyloxazol-4-yl)pyridin-2-yl)((trans-4-(4-methoxy-3-methylphenyl)cyclohexyl)methyl)carbamoyl)cyclohexyl isopropylcarbamate]	≤ 50
COc1ccc([C@H]2CC[C@H](CN(c3cccc(-c4cnn(C(C)C)c4)c3)C(=O)[C@H]3CC[C@H](OC(=O)NCC(C)(F)F)CC3)CC2)cc1C [Compound 5.06, trans-4-((3-(1-Isopropyl-1H-pyrazol-4-yl)phenyl)(((trans)-4-(4-methoxy-3-methylphenyl)cyclohexyl)methyl)carbamoyl)cyclohexyl (2,2-difluoropropyl)carbamate]	≤ 50
COc1ccc([C@H]2CC[C@H](CN(c3cc(-c4cnn(C(C)C)c4)ccn3)C(=O)[C@H]3CC[C@H](OC(=O)NC[C@@H](F)CF)CC3)CC2)cc1C [Compound 2.32, trans-4-((4-(1-Isopropyl-1H-pyrazol-4-yl)pyridin-2-yl)(((trans)-4-(4-methoxy-3-methylphenyl)cyclohexyl)methyl)carbamoyl) cyclohexyl((R)-2,3-difluoropropyl)carbamate]	≤ 50
COc1ccc([C@H]2CC[C@H](CN(c3cccc(-c4coc(C5CC5)n4)c3)C(=O)[C@H]3CC[C@H](C(=O)OC)CC3)CC2)nc1C [Compound 18, trans-Methyl 4-((3-(2-cyclopropyloxazol-4-yl)phenyl)((trans-4-(5-methoxy-6-methylpyridin-2-yl)cyclohexyl)methyl)carbamoyl)cyclo-hexanecarboxylate]	≤ 50
COc1ccc([C@H]2CC[C@H](CN(c3cc(-c4cnn(C(C)C)c4)ccn3)C(=O)[C@H]3CC[C@H](OC(=O)N4CCN(C)CC4)CC3)CC2)cc1Cl [Compound 2.06, trans-4-(((trans-4-(3-Chloro-4-methoxyphenyl)cyclohexyl)methyl)(4-(1-isopropyl-1H-pyrazol-4-yl)pyridin-2-yl)carbamoyl)cyclohexyl 4-methylpiperazine-1-carboxylate]	≤ 50
COc1ccc(C23CCC(CN(c4cc(-c5cnn(C(F)(F)F)c5)ccn4)C(=O)[C@H]4CC[C@H](OC(=O)N5CC(O)C5)CC4)(CC2)CC3)cc1C [Compound 4.19, 4-(((4-(4-Methoxy-3-methylphenyl)bicyclo [2.2.2]octan-1-yl)methyl) (4-(1-(trifluoromethyl)-1H-pyrazol-4-yl)pyridin-2-yl)carbamoyl) cyclohexyl 3-hydroxyazetidine-trans-1-carboxylate]	≤ 50
COc1ccc(C23CCC(CN(c4cc(-c5cnc(C(C)C)s5)ccn4)C(=O)[C@H]4CC[C@H](OC(=O)NCCCO)CC4)(CC2)CC3)cc1C [Compound 4.33, 4-((4-(2-Isopropylthiazol-5-yl)pyridin-2-yl)((4-(4-methoxy-3-methylphenyl)bicyclo[2.2.2]octan-1-yl)methyl)carbamoyl)(trans-cyclohexyl) (3-hydroxypropyl)carbamate]	≤ 50

Second part, the compound after the results:

EC50 [nM]	Compound
≤ 50	COc1ccc(C23CCC(CN(c4cc(-c5ccn(C(C)C)n5)ccn4)C(=O)[C@H]4CC[C@H](OC(=O)N5CC(O)C5)CC4)(CC2)CC3)cc1C [Compound 23.16, 4-((4-(1-Isopropyl-1H-pyrazol-3-yl)pyridin-2-yl)((4-(4-methoxy-3-methylphenyl)bicyclo[2.2.2]octan-1-yl)methyl)carbamoyl)cyclo-hexyl trans-3-hydroxyazetidine-1-carboxylate]
≤ 50	COc1ccc(C23CCC(CN(c4cc(-c5nc(C(C)C)no5)ccn4)C(=O)[C@H]4CC[C@H](OC(=O)N5CC(O)C5)CC4)(CC2)CC3)cc1C [Compound 26.13, 4-((4-(3-isopropyl-1,2,4-oxadiazol-5-yl)pyridin-2-yl)((4-(4-methoxy-3-methylphenyl)bicyclo[2.2.2]octan-1-yl)methyl)carbamoyl)cyclohexyl trans-3-hydroxyazetidine-1-carboxylate]
≤ 50	COc1ccc(C23CCC(CN(c4cc(-n5cnc(C(C)C)c5)ccn4)C(=O)[C@H]4CC[C@H](OC(=O)N5CC(O)C5)CC4)(CC2)CC3)cc1C [Compound 23.13, 4-((4-(4-Isopropyl-1H-imidazol-1-yl)pyridin-2-yl)((4-(4-methoxy-3-methylphenyl)bicyclo[2.2.2]octan-1-yl)methyl)carbamoyl)cyclohexyl trans-3-hydroxyazetidine-1-carboxylate]
≤ 50	COc1ccc(C23CCC(CN(c4cc(-c5cnn(C(C)C)c5)c(F)cn4)C(=O)[C@H]4CC[C@H](OC(=O)N5CC(O)C5)CC4)(CC2)CC3)cc1C [Compound 26.02, 4-((5-Fluoro-4-(1-isopropyl-1H-pyrazol-4-yl)pyridin-2-yl)((4-(4-methoxy-3-methylphenyl)bicyclo[2.2.2]octan-1-yl)methyl)carbamoyl)(trans-cyclohexyl) 3-hydroxyazetidine-1-carboxylate]
≤ 50	COc1ccc(C23CCC(CN(c4cc(-n5cc(C(C)C)cn5)ccn4)C(=O)[C@H]4CC[C@H](OC(=O)N5CC(O)C5)CC4)(CC2)CC3)cc1C [Compound 23.14, 4-((4-(4-Isopropyl-1H-pyrazol-1-yl)pyridin-2-yl)((4-(4-meth-oxy-3-methylphenyl)bi-cyclo[2.2.2]octan-1-yl)meth-yl)carbamoyl)cyclohexyl trans-3-hydroxyazetidine-1-carboxylate]
≤ 50	COc1ccc(C23CCC(CN(c4cc(-c5cnn(C6CCC6)c5)ncn4)C(=O)[C@H]4CC[C@H](OC(=O)N5CC(O)C5)CC4)(CC2)CC3)cc1C [Compound 23.23, 4-((6-(1-Cyclobutyl-1H-pyrazol-4-yl)pyrimidin-4-yl)((4-(4-methoxy-3-methylphenyl)bicyclo[2.2.2]octan-1-yl)methyl)carbamoyl)(trans-cyclohexyl) 3-hydroxyazetidine-1-carboxylate]
